Data as given in PubChem BioAssay AID2060893 (Molecular Pharmacology Branch, DTP, NCI, 2025).
Each block holds one compound with its values, some of them ahead of it.

System: K86415-001-R-J1-PDC complex spheroids, viability
Assay: Anticancer human tumor K86415-001-R-J1-PDC patient-derived lung adenocarcinoma cell line growth inhibition [RAS]
Settings: for IC50: curve of first compound; for viability, T/C: stronger effect = lower value
Outline: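 Multi-cell-type spheroids: tumor cells plus HUVEC endothelial cells and mesenchymal stem cells. RAS-pathway inhibitors were combined with targeted agents, each dosed in half-log steps down from clinical Cmax, or from 10 microM when Cmax was unknown.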

[1] = second compound 0.000949 µM, first compound 0.0316 µM
[2] = second compound 0.000949 µM, first compound 0.1 µM
[3] = second compound 0.000949 µM, first compound 0.316 µM
[4] = second compound 0.000949 µM, first compound 1 µM
[5] = second compound 0.000949 µM, first compound 3.16 µM
[6] = second compound 0.000949 µM, first compound 10 µM
[7] = second compound 0.003 µM, first compound 0.0316 µM
[8] = second compound 0.003 µM, first compound 0.1 µM
[9] = second compound 0.003 µM, first compound 0.316 µM
[10] = second compound 0.003 µM, first compound 1 µM
[11] = second compound 0.003 µM, first compound 3.16 µM
[12] = second compound 0.003 µM, first compound 10 µM
[13] = second compound 0.00949 µM, first compound 0.0316 µM
[14] = second compound 0.00949 µM, first compound 0.1 µM
[15] = second compound 0.00949 µM, first compound 0.316 µM
[16] = second compound 0.00949 µM, first compound 1 µM
[17] = second compound 0.00949 µM, first compound 3.16 µM
[18] = second compound 0.00949 µM, first compound 10 µM
[19] = second compound 0.03 µM, first compound 0.0316 µM
[20] = second compound 0.03 µM, first compound 0.1 µM
[21] = second compound 0.03 µM, first compound 0.316 µM
[22] = second compound 0.03 µM, first compound 1 µM
[23] = second compound 0.03 µM, first compound 3.16 µM
[24] = second compound 0.03 µM, first compound 10 µM
[25] = second compound 0.0949 µM, first compound 0.0316 µM
[26] = second compound 0.0949 µM, first compound 0.1 µM
[27] = second compound 0.0949 µM, first compound 0.316 µM
[28] = second compound 0.0949 µM, first compound 1 µM
[29] = second compound 0.0949 µM, first compound 3.16 µM
[30] = second compound 0.0949 µM, first compound 10 µM
[31] = second compound 0.3 µM, first compound 0.0316 µM
[32] = second compound 0.3 µM, first compound 0.1 µM
[33] = second compound 0.3 µM, first compound 0.316 µM
[34] = second compound 0.3 µM, first compound 1 µM
[35] = second compound 0.3 µM, first compound 3.16 µM
[36] = second compound 0.3 µM, first compound 10 µM
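Note: spheroids exposed to agents for seven days before readout.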

IC50 (second compound 0.000949 µM): < 31.6 nM
IC50 (second compound 0.003 µM): < 31.6 nM
IC50 (second compound 0.00949 µM): < 31.6 nM
IC50 (second compound 0.03 µM): < 31.6 nM
IC50 (second compound 0.0949 µM): < 31.6 nM
IC50 (second compound 0.3 µM): < 31.6 nM
SMILES: Cc1nc(N2CCC3(CC2)COC(C)C3N)c(CO)nc1Sc1ccnc(N)c1Cl (stereo unspecified) + CCn1c(-c2cc(N3CCN(C)CC3)cnc2C(C)OC)c2c3cc(ccc31)-c1csc(n1)CC(NC(=O)C1CC1C)C(=O)N1CCCC(N1)C(=O)OCC(C)(C)C2
viability, T/C [1]: 35.8%
viability, T/C [2]: 20.5%
viability, T/C [3]: 9.55%
viability, T/C [4]: 10.9%
viability, T/C [5]: 7.52%
viability, T/C [6]: 7.71%
viability, T/C [7]: 15.5%
viability, T/C [8]: 11.7%
viability, T/C [9]: 7.5%
viability, T/C [10]: 6.79%
viability, T/C [11]: 4.71%
viability, T/C [12]: 4.41%
viability, T/C [13]: 10.5%
viability, T/C [14]: 6.46%
viability, T/C [15]: 5.74%
viability, T/C [16]: 4.02%
viability, T/C [17]: 3.99%
viability, T/C [18]: 4.11%
viability, T/C [19]: 5.58%
viability, T/C [20]: 3.68%
viability, T/C [21]: 4.39%
viability, T/C [22]: 3.48%
viability, T/C [23]: 3.37%
viability, T/C [24]: 3.97%
viability, T/C [25]: 3.82%
viability, T/C [26]: 3.07%
viability, T/C [27]: 3.2%
viability, T/C [28]: 3.97%
viability, T/C [29]: 3.81%
viability, T/C [30]: 3.34%
viability, T/C [31]: 2.66%
viability, T/C [32]: 3.52%
viability, T/C [33]: 3.88%
viability, T/C [34]: 3.34%
viability, T/C [35]: 4.46%
viability, T/C [36]: 2.74%

IC50 (second compound 0.000949 µM): < 31.6 nM
IC50 (second compound 0.003 µM): < 31.6 nM
IC50 (second compound 0.00949 µM): < 31.6 nM
IC50 (second compound 0.03 µM): < 31.6 nM
IC50 (second compound 0.0949 µM): < 31.6 nM
IC50 (second compound 0.3 µM): < 31.6 nM
SMILES: NC1c2ccccc2OC12CCN(c1cnc3c(N4CCCc5ncccc54)n[nH]c3n1)CC2 (stereo unspecified) + CCn1c(-c2cc(N3CCN(C)CC3)cnc2C(C)OC)c2c3cc(ccc31)-c1csc(n1)CC(NC(=O)C1CC1C)C(=O)N1CCCC(N1)C(=O)OCC(C)(C)C2
viability, T/C [1]: 17.9%
viability, T/C [2]: 13.2%
viability, T/C [3]: 7.58%
viability, T/C [4]: 9.76%
viability, T/C [5]: 9.06%
viability, T/C [6]: 7.7%
viability, T/C [7]: 9.27%
viability, T/C [8]: 8.67%
viability, T/C [9]: 6.53%
viability, T/C [10]: 6.35%
viability, T/C [11]: 4.86%
viability, T/C [12]: 5.29%
viability, T/C [13]: 7.91%
viability, T/C [14]: 5.02%
viability, T/C [15]: 5.89%
viability, T/C [16]: 4.63%
viability, T/C [17]: 5.75%
viability, T/C [18]: 4.91%
viability, T/C [19]: 5.17%
viability, T/C [20]: 4.43%
viability, T/C [21]: 5.11%
viability, T/C [22]: 5.46%
viability, T/C [23]: 3.67%
viability, T/C [24]: 5.21%
viability, T/C [25]: 3.52%
viability, T/C [26]: 4.51%
viability, T/C [27]: 4.52%
viability, T/C [28]: 3.8%
viability, T/C [29]: 3.7%
viability, T/C [30]: 4.75%
viability, T/C [31]: 4.69%
viability, T/C [32]: 4.26%
viability, T/C [33]: 4.59%
viability, T/C [34]: 3.96%
viability, T/C [35]: 4.65%
viability, T/C [36]: 4.77%

IC50 (second compound 0.000949 µM): < 3.16 nM
IC50 (second compound 0.003 µM): < 3.16 nM
IC50 (second compound 0.00949 µM): < 3.16 nM
IC50 (second compound 0.03 µM): < 3.16 nM
IC50 (second compound 0.0949 µM): < 3.16 nM
IC50 (second compound 0.3 µM): < 3.16 nM
SMILES: Nc1ccn(C2OC(CO)C(O)C2(F)F)c(=O)n1 (stereo unspecified) + CCn1c(-c2cc(N3CCN(C)CC3)cnc2C(C)OC)c2c3cc(ccc31)-c1csc(n1)CC(NC(=O)C1CC1C)C(=O)N1CCCC(N1)C(=O)OCC(C)(C)C2
viability, T/C (second compound 0.000949 µM, first compound 0.00316 µM): 47%
viability, T/C (second compound 0.000949 µM, first compound 0.01 µM): 45.2%
viability, T/C [1]: 34%
viability, T/C [2]: 26.3%
viability, T/C [3]: 21.8%
viability, T/C [4]: 16.3%
viability, T/C (second compound 0.003 µM, first compound 0.00316 µM): 24.2%
viability, T/C (second compound 0.003 µM, first compound 0.01 µM): 19.4%
viability, T/C [7]: 18.2%
viability, T/C [8]: 19.3%
viability, T/C [9]: 15.4%
viability, T/C [10]: 11.8%
viability, T/C (second compound 0.00949 µM, first compound 0.00316 µM): 11.9%
viability, T/C (second compound 0.00949 µM, first compound 0.01 µM): 8.79%
viability, T/C [13]: 10.1%
viability, T/C [14]: 13.8%
viability, T/C [15]: 9.53%
viability, T/C [16]: 9.18%
viability, T/C (second compound 0.03 µM, first compound 0.00316 µM): 6.18%
viability, T/C (second compound 0.03 µM, first compound 0.01 µM): 6.2%
viability, T/C [19]: 6.46%
viability, T/C [20]: 5.05%
viability, T/C [21]: 3.47%
viability, T/C [22]: 4.42%
viability, T/C (second compound 0.0949 µM, first compound 0.00316 µM): 4.43%
viability, T/C (second compound 0.0949 µM, first compound 0.01 µM): 4.18%
viability, T/C [25]: 4.08%
viability, T/C [26]: 3.58%
viability, T/C [27]: 2.79%
viability, T/C [28]: 2.41%
viability, T/C (second compound 0.3 µM, first compound 0.00316 µM): 3.51%
viability, T/C (second compound 0.3 µM, first compound 0.01 µM): 3.18%
viability, T/C [31]: 3.3%
viability, T/C [32]: 2.52%
viability, T/C [33]: 3.52%
viability, T/C [34]: 2.26%
